Values of other authors as cited in Sander's compilation of Henry's law constants (doi:10.1021/je900477x).
Values joined by “and” are separate entries in the source; they are usually repeats but may differ in a detail not shown here. Identical values can stand only once.

Assay: Henry solubility constant Hcp at 298.15 K (mol/(m3 Pa))
Details: reference: Ma et al. (2010b); cited value

| SMILES | Henry solubility constant Hcp |
| --- | --- |
| c1ccc2cc3c(cc2c1)-c1cccc2cccc-3c12 [benzo[k]fluoranthene] | 17 and 18 |
| c1cc2c3c(cccc3c1)CC2 [acenaphthene] | 0.072 and 0.07 |
| c1ccc2c(c1)cc1ccc3cccc4ccc2c1c34 [benzo[a]pyrene] | 20 and 13 |
| C1=Cc2cccc3cccc1c23 [acenaphthylene] | 0.082 and 0.1 |
| c1ccc2c(c1)ccc1c3ccccc3ccc21 [chrysene] | 2.3 and 2.7 |
| c1ccc2c(c1)-c1cccc3cccc-2c13 [benzo[jk]fluorene] | 0.69 and 0.75 |
| c1ccc2c(c1)Cc1ccccc1-2 [2,3-benzindene] | 0.11 |

Second part, the molecule after the results:

| Henry solubility constant Hcp | SMILES |
| --- | --- |
| 0.23 | c1ccc2c(c1)ccc1ccccc12 [phenanthrene] |
| 30 and 24 | c1cc2ccc3ccc4ccc5cccc6c(c1)c2c3c4c56 [benzo[ghi]perylene] |
| 29 and 20 | c1ccc2c(c1)-c1ccc3ccc4cccc5cc-2c1c3c45 [indeno[1,2,3-cd]pyrene] |
| 15 | c1ccc2c(c1)-c1cccc3c1c-2cc1ccccc13 [benzo[b]fluoranthene] |
| 0.021 and 0.022 | c1ccc2ccccc2c1 [naphthalene] |
| 0.2 | c1ccc2cc3ccccc3cc2c1 [anthracene] |
